Reference: US8501911B2, “Methods of reducing inflammation and mucus hypersecretion” (Biomarck Pharmaceuticals, Ltd, priority 1999, dated 2013)
Residues, ends and D or L forms follow the SMILES beside them. *: point of attachment. Myristoyl = CCCCCCCCCCCCCC(=O)*

Legend:
human neutrophils = assay: Inhibition of release of myeloperoxidase (MPO) from PMA-stimulated human neutrophils; assay type: cell-based; conditions: at 100 μM of test peptide; 100 nM PMA
Source text: Human neutrophil isolation: Human neutrophils were isolated according to a slightly modified method previously described by Akasaki T, Koga H, and Sumimoto H., Phosphoinositide 3-kinase-dependent and -independent activation of the small GTPase Rac2 in human neutrophils, J. Biol. Chem. 274:18055-18059, 1999. Alternatively, human neutrophils were isolated as previously described (see Takashi S, OkuboY, Horie S. Contribution of CD54 to human eosinophil and neutrophil superoxide production. J. Appl. Physiol. 91:613-622, 2001) with slight modifications. Briefly, heparinized venous blood was obtained from normal healthy human volunteers, diluted with RPMI-1640 (Cellgro; Mediatech, Inc., Herndon, Va.) at a ratio of 1:1, layered onto a Histopaque (density, 1.077 g/ml; Sigma-Aldrich Co., St. Louis, Mo.), and centrifuged at 400 g for 20 min at 4° C. The supernatant and mononuclear cells at the interface were carefully removed, and erythrocytes in the sediment were lysed in chilled distilled water. Isolated granulocytes were washed twice with Hanks' balanced salts solution (HBSS) and resuspended in HBSS on ice. The neutrophils used for the experiments were of >98% purity with <2% contamination by eosinophils, and the viability was >99% as determined by Trypan blue dye exclusion.
Measurement of released MPO activity: Purified human neutrophils suspended in HBSS were aliquoted at 4×10^6 cells/ml in 15 ml tubes and preincubated with either 50 or 100 μM of test peptide (dissolved in PBS, pH 7.0) for 10 min at 37° C. […] Secretions were quantified by using as a standard, human MPO.
MPO activity in the cell supernatant was assayed using tetramethylbenzidine (TMB) based on a previously established technique (Paige L, Mahmudi-Azer S, Bablitz B, Hage S C, Velazquez J R, Man S F P, and Moqbel R. Rapid Mobilization of intracellularly stored RANTES in response to Interferon-γ in human eosinophils. Blood, 94:23-32, 1999). […] The reaction was terminated by addition of 50 μl of 1M H2SO4 and absorbance was read at 450 nm in a spectrophotometric microplate reader (Molecular Devices, Sunnyvale, Calif.).

NK-92 cells = assay: Inhibition of release of granzyme from NK-92 cells; assay type: cell-based, human
Method: Measurement of NK cell granzyme secretion: Granzyme secreted from NK-92 cells was assayed by measuring hydrolysis of Nα-benzyloxycarbonyl-L-lysine thiobenzyl ester (BLT, EMD Bioscience, Inc.) essentially as described previously (Takayama H. Trenn G, Sitkovsky M V. A novel cytotoxic T lymphocyte activation assay. J. Immunol. Methods 104:183-190, 1987). An aliquot of 50 μl of supernatant was transferred to a 96-well plate, and 150 μl of 0.2 mM solution of BLT and 0.22 mM DTNB (Sigma-Aldrich Co.) in phosphate-buffered saline (PBS, pH 7.2) was added to the supernatant. Absorbance at 410 nm was measured after incubation for 30 min at room temperature. Results were expressed as percentage of total cellular enzyme content, using the amount obtained in the same number of triton X-100-lysed cells.
Because standard granzyme from NK-92 cells was not available to use for quantification, we measured both released and intracellular (from lysed cells) levels of granzyme, and expressed the released granzyme as a percentage of total (intracellular and released) for each. To measure intracellular granzyme from NK-92 cells, appropriate aliquots of 0.1% triton X-100-lysed cells were taken for quantification of the enzyme as described above. All data are expressed as percentage of control to minimize variability between cultures.

[1] = Solubility in 0.5 N saline; assay type: physicochemical; conditions: in 0.5 N Saline at pH 6.5

With `CCCCCCCCCCCCCC(=O)NCC(=O)N[C@H](C(=O)N[C@@H](C)C(=O)N1CCC[C@H]1C(=O)N[C@@H](C)C(=O)N[C@@H](C)C(=O)N[C@@H](CCC(=O)O)C(=O)NCC(=O)N[C@@H](C)C(=O)NCC(=O)N[C@@H](C)C(=O)N[C@@H](CCC(=O)O)C(=O)N[C@H](C(=O)N[C@@H](CCCCN)C(=O)N[C@@H](CCCNC(=N)N)C(=O)N[C@@H](C)C(=O)N[C@@H](CO)C(=O)N[C@@H](C)C(=O)N[C@@H](CCC(=O)O)C(=O)N[C@@H](C)C(=O)N[C@@H](CCCCN)C(=O)N[C@@H](CCC(N)=O)C(=O)N[C@@H](C)C(=O)N[C@@H](Cc1ccccc1)C(=O)O)C(C)C)[C@@H](C)O` [RNS peptide, reference compound] (Myristoyl-GTAPAAEGAGAEVKRASAEAKQAF-OH; C-terminus assumed) the “% Inhibition MPO” value (human neutrophils) was 0%, the “Effect on PMA-enhanced granzyme secretion” value (NK-92 cells; any of the time points or concentrations tested) was “did not affect” and the “% Inhibition Granzyme” value (NK-92 cells; at 50 μM of test peptide) was 29.5%. It also gave a solubility [1] greater than 15 mg/mL.
